What was measured:
Beta-lactamase TEM = Beta-lactamase TEM (Escherichia coli, UniProt P62593); assay: In vitro inhibitory activity against Class A (TEM-1) beta-Lactamases
Beta-lactamase = Beta-lactamase (Escherichia coli K-12, UniProt P00811)
Description: In vitro inhibitory activity against Class C (Amp-C) beta-Lactamases

[1] = molecular target: Metallo-beta-lactamase type 2 (Bacteroides fragilis, UniProt P25910); assay: In vitro inhibitory activity against Class B (CCRA) beta-Lactamases
IMI-1 = IMI-1 (Enterobacter cloacae, UniProt Q46991); assay: In vitro inhibitory activity against Class A (Imi-1) beta-Lactamases
IMI-1, sequence (Q46991 whole entry): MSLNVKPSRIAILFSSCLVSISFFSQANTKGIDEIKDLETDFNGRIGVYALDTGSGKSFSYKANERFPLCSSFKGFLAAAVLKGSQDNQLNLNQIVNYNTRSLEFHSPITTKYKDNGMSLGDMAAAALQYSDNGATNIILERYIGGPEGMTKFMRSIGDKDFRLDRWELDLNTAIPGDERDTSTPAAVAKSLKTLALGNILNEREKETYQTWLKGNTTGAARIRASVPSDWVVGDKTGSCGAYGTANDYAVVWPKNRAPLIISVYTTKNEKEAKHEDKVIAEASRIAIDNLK

Beta-lactamase, sequence (P00811 whole entry): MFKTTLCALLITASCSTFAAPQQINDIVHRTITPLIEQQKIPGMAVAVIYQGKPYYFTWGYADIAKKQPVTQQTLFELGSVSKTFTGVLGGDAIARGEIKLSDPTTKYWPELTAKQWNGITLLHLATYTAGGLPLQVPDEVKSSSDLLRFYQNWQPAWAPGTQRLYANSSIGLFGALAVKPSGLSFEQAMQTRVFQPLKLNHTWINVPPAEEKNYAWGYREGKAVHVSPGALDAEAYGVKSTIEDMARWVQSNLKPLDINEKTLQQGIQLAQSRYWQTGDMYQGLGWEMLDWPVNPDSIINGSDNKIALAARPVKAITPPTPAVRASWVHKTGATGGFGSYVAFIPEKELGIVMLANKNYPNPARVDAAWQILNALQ
Beta-lactamase TEM, sequence (P62593 whole entry): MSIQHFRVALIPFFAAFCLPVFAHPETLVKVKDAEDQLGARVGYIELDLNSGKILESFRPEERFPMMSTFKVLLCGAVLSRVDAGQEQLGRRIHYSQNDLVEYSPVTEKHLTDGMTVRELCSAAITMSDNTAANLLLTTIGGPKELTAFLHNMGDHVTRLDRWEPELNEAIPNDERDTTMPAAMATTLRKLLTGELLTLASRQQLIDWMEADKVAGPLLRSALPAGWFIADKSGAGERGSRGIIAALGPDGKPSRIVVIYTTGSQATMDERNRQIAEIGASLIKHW
Metallo-beta-lactamase type 2, sequence (P25910 whole entry): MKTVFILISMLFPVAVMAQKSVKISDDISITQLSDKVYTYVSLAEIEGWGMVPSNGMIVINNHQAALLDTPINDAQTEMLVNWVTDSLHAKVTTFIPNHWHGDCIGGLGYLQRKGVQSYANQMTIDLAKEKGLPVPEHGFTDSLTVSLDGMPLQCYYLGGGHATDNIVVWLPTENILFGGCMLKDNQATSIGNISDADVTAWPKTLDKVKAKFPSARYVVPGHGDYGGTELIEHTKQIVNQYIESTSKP

Work on `O=C(O)C1=CS[C@@H]2/C(=C\c3cn4c5c(sc4n3)CCC5)C(=O)N12` yielded an IC50 (Beta-lactamase TEM) of 1 nM and an IC50 (Beta-lactamase) of 2 nM.
`O=C(O)C1=CS[C@@H]2/C(=C\c3cc4n(n3)CCC4)C(=O)N12` gave an IC50 (Beta-lactamase TEM) of 1 nM and an IC50 (Beta-lactamase) of 2 nM.
Work on `O=C(O)C1=CS[C@@H]2/C(=C\c3cnc4n3CCOC4)C(=O)N12` yielded an IC50 [1] of 66 nM, an IC50 (Beta-lactamase TEM) of 0.4 nM and an IC50 (IMI-1) of 8 nM. It also gave an IC50 (Beta-lactamase) of 5 nM.
In the case of `O=C(O)C1=CS[C@@H]2/C(=C\c3cnc4n3CCNC4)C(=O)N12`, the IC50 [1] is reported as 320 nM, the IC50 (Beta-lactamase TEM) is reported as 5 nM and the IC50 (IMI-1) is reported as 28 nM. For the same compound, the IC50 (Beta-lactamase) was 6 nM.
